How the values were obtained:
[1] = system: U2OS cells; experiment: Immunoblot analysis of DNA damage and checkpoint markers in U2OS cells treated with UNC0379; type: cell-based, human
Experimental: For immunoblot analysis, cells washed with phosphate-buffered saline (PBS) were lysed in Laemmli buffer. After measuring protein quantity by Bradford, equal amounts of protein were resolved by SDS-PAGE, transferred to a nitrocellulose membrane and probed with one of the following antibodies: anti-SETD8 (1:1000, Cell Signaling Technology), anti-H4K20me1 (1:1000 cell signaling) anti-phospho-H2A.X-Ser139 (1:1000, millipore). Membranes were then incubated with the appropriate horseradish peroxidase (HRP)-conjugated secondary antibodies. The immunoreactive bands were detected by chemiluminescence.

[2] = system: XG1 HMCL; experiment: Apoptosis induction, Annexin V APC staining by flow cytometry, XG1; type: cell-based, human; conditions: XG1, UNC0379 5 mM (so in the source)
Experimental: (§1) Apoptosis induction was analyzed with Annexin V APC staining by flow cytometry. The shown data is one representative experiment and mean values±SD of 3 separate experiments. Statistical analysis was done with a paired t-test.

[3] = system: XG7 HMCL; experiment: Apoptosis induction, Annexin V APC staining by flow cytometry, XG7; type: cell-based, human; conditions: XG7, UNC0379 5 mM (so in the source)
Experimental: as §1

[4] = system: non-myeloma cells; type: cell-based, human; conditions: 1, 2.5 and 5 μM, day 4, patient mononuclear cell cultures, n=8
Experimental: […]. At day 4 of culture, the viability and total cell counts were assessed and the percentage of CD138 viable plasma cells was determined by flow cytometry. Results are median values of the numbers of myeloma cells in the culture wells. The values were compared with a Wilcoxon test for pairs.
[…]. MMCs cytotoxicity was evaluated using anti-CD138-PE mAb (Immunotech, Marseille, France) as described^18,35. Results were analyzed using GraphPad Prism (http://www.graphpad.com/scientific-software/prism/).

[5] = system: MM cells; experiment: DNA repair foci (53BP1) immunofluorescence, combination with melphalan; conditions: sub-lethal dose of UNC0379 combined with melphalan, P<0.001
Text: At least 300 cells were counted for each treatment group.
After deposition on slides using a Cytospin centrifuge, cells were fixed with 4% PFA, permeabilized with 0.5% Triton in PBS and saturated with 5% bovine milk in PBS. […] Slides were washed and mounted with Vectashield and 1% DAPI. Images and fluorescence were captured with a ZEISS Axio Imager Z2 microscope (X63 objective) (company, town state), analyzed with Metafer (version3.6, company, town state) and ImageJ softwares. The number of 53BP1 and γH2AX foci was counted in at least 300 nuclei.

SMILES: COc1cc2nc(N3CCCC3)nc(NCCCCCN3CCCC3)c2cc1OC [UNC0379]
- P53 level [1]: stabilization of P53
- phosphorylation of CHK1 (DNA damage checkpoint activation) [1]: phosphorylation of CHK1
- γH2A.X (marker of DNA damage) [1]: increase in γH2A.X
- annexin-V positive cells [2]: 87%
- annexin-V positive cells [3]: 63%
- toxicity on the non-myeloma cells [4]: without significant toxicity
- accumulation of DNA double strand breaks (53BP1 foci) [5]: significantly synergizes with melphalan
